The record followed here is publication PMC8365602 (Journal of Medicinal Chemistry, 2021).

Series [1] can be described thus: Radical scavenging activity (DPPH). The note with it: DPPH. As for the experimental part:
Compound 27a was incubated with 2,2-diphenyl-1-picrylhydrazyl (DPPH, Sigma-Aldrich; 50 mM) in ethanol for 30 min, and the absorbance was measured at 520 nm using a Multiskan Spectrum Microplate Reader (Thermo Fisher Scientific).[72] The positive control ascorbic acid (Sigma-Aldrich; 25 μM) scavenged DPPH radicals by 36 ± 11%.
Background: The DPPH test is a chemical assay of radical scavenging.

For series [2], the system named is PMNL. The series can be described thus: fMLP-induced Ca2+ influx in PMNL. The series is classed as cell-based, human. As for the experimental part:
PMNL (1 × 10^6) were loaded with Fura-2/AM (2 nmol, Thermo Fisher Scientific) for 45 min at 37 °C. […] Intracellular Ca^2+ concentrations were measured using a NOVOstar fluorescence microplate reader (BMG Labtech, Ortenberg, Germany) at 37 °C. The emission wavelength was set to 510 nm and the excitation wavelengths to 340 nm (Ca^2+-bound Fura-2) and 380 nm (free Fura-2).[23] To define 100% Ca^2+ influx, the difference between the maximal influx (cell lysis by Triton X-100) and minimal influx (subsequent chelation of Ca^2+ by EDTA) was measured for each experiment.

For series [3], the system named is 15-LOX. The series can be described thus: 15-LOX product formation in activated PMNL. The series is classed as cell-based, human.
Description: Freshly isolated PMNL (5 × 10^6) suspended in PBS pH 7.4 with 1 mg/mL glucose or freshly withdrawn human whole blood were preincubated with the test compounds for 10 min (or as indicated) at 37 °C. […] The reaction was stopped with an equal volume of methanol.
Series [4] addresses T1, COX-1 (Homo sapiens, UniProt P23219).
T1 construct: Freshly isolated platelets (1 × 10^8) were preincubated with vehicle (DMSO) or 27a; endogenous in cells; host or cells: freshly isolated human platelets
The series can be described thus: Platelet COX-1 activity (12-HHT formation). The series is classed as cell-based. As to the method:
Freshly isolated platelets (1 × 10^8) were preincubated with vehicle (DMSO) or 27a for 5 min at room temperature. Arachidonic acid (5 μM) was added to induce 12-HHT formation.

The test system of series [5] is human macrophages (M1 subtype). Nature of the series: Lipid mediator profile of M1 macrophages stimulated with pathogenic E. coli. The series is classed as cell-based. The note with it: 1 μM. As to the method: Macrophages were polarized to the M1 phenotype by stimulation with LPS (100 ng/mL, Sigma-Aldrich) and interferon (IFN)-γ (20 ng/mL, Peprotech, Hamburg, Germany) for 48 h.[23]
Monocytes (1 × 10^6/mL), which were prestimulated with LPS (1 μg/mL) for 24 h to induce COX-2 expression, or M1 macrophages (2 × 10^6 cells/mL) were preincubated with the vehicle (0.1% DMSO), 27a, or 12a for 15 min. Arachidonic acid (20 μM) and A23187 (2.5 μM) were added to monocytes suspended in a monocyte medium (lacking FCS if indicated) to induce lipid mediator formation.[81]
Fatty acids and lipid mediators were extracted from macrophage supernatants or murine peritoneal exudates (1 mL) after addition of two aliquots of ice-cold methanol.[23]d8-5S-HETE, d4-LTB4, d5-lipoxin A4, d5-resolvin D2, d4-PGE2 (200 nM, each, Cayman Chemicals), and d8-arachidonic acid (10 μM, Cayman Chemicals) were added as internal standards. […] The columns were extensively washed with H2O and hexane before lipid mediators were eluted with methyl formate, evaporated to dryness, dissolved in methanol/H2O (50:50), and analyzed by UPLC-MS/MS.[23]
To quantify lipid mediators and fatty acids in macrophages, murine plasma, and murine peritoneal exudates, the mobile phase methanol/H2O (acidified with 0.01% acetic acid) was ramped from 42:58 to 86:14 over 12.5 min, followed by isocratic elution with methanol/H2O (98:2) for 3 min. […]

Series [6] can be described thus: Hepatic metabolism in human liver-on-chip. The series is classed as in vitro ADME. The note with it: 1 μM, 48 h. As for the experimental part:
LCMs, 27a, and 27a metabolites were extracted from PMNL, medium of the liver-on-chip, murine plasma, peritoneal exudate, or homogenized murine tissue as described.[6] In brief, PBS pH 7.4, methanol, chloroform, and saline (final ratio: 14:34:35:17) were successively added together with 13d (9 pmol) as the internal standard. The organic layer was evaporated, and the extracted LCMs were dissolved in methanol.
LCMs, 27a, and 27a metabolites were separated at a flow rate of 0.8 mL/min and a column temperature of 45 °C, with acetonitrile/H2O (10:90) as mobile phase A and acetonitrile as mobile phase B, both acidified with 0.07% formic acid. The linear gradient from A/B = 50:50 to 0:100 within 4.5 min was followed by isocratic elution with A/B = 0:100 for 1 min. MS parameters were adjusted according to Pein et al.[6] and as detailed in Table S3. Signal intensities were normalized to the internal standard 13d, and concentrations were calculated using external calibration curves as specified in Table S3. […]
The medium between the two membranes was renewed, and the vehicle (DMSO), 12a, or 27a were added. […] 12a, 27a, and their metabolites were extracted from the combined fractions and analyzed by UPLC-MS/MS.[6]

For series [7], the system named is human keratinocytes. Nature of the series: Keratinocyte cytotoxicity (MTT) in the RHE model. The following applies: MTT assay. The series is classed as cell-based. As to the method: Compound 27a was evaluated in an inflammatory model of RHE by Synelvia S.A.S. (Labège, France) according to the company’s protocol.[88] In brief, primary human keratinocytes were used to generate RHE on polycarbonate filters as described.[88] RHE was allowed to acclimate for 6 days (5% CO2, 37 °C) prior to incubation with 27a (5, 10, 25 μM), dexamethasone (1 μM), or vehicle (0.05% DMSO), and a proinflammatory cytokine cocktail for 4 days at 5% CO2 and 37 °C. The culture medium including compounds and cytokines was changed on days 6, 8, and 10. Each culture condition was repeated three times. Acute cytotoxicity of 27a was excluded at the concentrations studied within 24 h by measuring the mitochondrial dehydrogenase activity (MTT assay).

Series [8] deals with single mutant Arg101Asp 5-LOX (R101D) (Homo sapiens, UniProt P09917, R102D). The series can be described thus: Cell-free activity of 5-LOX single mutant (R101D).
Sequence of single mutant Arg101Asp 5-LOX (R101D) (P09917 whole entry R102D): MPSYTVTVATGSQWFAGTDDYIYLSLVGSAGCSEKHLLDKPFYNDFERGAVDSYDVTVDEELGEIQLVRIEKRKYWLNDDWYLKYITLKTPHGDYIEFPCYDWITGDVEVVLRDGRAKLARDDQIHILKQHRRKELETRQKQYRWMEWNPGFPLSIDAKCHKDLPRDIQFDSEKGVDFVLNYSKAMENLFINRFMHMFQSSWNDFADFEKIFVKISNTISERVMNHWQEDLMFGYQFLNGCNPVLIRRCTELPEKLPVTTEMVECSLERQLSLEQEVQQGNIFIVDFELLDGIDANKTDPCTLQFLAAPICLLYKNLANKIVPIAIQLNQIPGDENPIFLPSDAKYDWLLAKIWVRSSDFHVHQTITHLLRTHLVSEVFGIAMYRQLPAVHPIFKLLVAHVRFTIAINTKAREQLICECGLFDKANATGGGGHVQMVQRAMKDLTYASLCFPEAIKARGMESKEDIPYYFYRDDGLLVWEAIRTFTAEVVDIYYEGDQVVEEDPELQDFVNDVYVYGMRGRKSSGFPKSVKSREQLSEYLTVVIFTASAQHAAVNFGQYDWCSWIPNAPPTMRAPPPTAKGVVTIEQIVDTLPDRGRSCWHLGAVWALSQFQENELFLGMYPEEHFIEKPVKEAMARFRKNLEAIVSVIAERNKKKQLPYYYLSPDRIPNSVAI
Description: Human recombinant 5-LOX was expressed in E. coli Bl21 (DE3) cells that were transformed with pT3–5LOX (wt 5-LOX), 5-LOX_3W (triple mutation of Trp102Ala/Trp13Ala/Trp75Ala), or 5-LOX_R (single mutant of the Arg101Asp plasmid) and purified on an ATP-agarose column (Econo-Pac, Bio-Rad, Hercules, CA) by affinity chromatography.[6],[75]
Purified 5-LOX (0.5 μg in PBS pH 7.4 containing 1 mM EDTA and 1 mM ATP) was preincubated with the vehicle (DMSO) or test compounds for 10 min and prewarmed at 37 °C.

T1 sequence (P23219 24-599): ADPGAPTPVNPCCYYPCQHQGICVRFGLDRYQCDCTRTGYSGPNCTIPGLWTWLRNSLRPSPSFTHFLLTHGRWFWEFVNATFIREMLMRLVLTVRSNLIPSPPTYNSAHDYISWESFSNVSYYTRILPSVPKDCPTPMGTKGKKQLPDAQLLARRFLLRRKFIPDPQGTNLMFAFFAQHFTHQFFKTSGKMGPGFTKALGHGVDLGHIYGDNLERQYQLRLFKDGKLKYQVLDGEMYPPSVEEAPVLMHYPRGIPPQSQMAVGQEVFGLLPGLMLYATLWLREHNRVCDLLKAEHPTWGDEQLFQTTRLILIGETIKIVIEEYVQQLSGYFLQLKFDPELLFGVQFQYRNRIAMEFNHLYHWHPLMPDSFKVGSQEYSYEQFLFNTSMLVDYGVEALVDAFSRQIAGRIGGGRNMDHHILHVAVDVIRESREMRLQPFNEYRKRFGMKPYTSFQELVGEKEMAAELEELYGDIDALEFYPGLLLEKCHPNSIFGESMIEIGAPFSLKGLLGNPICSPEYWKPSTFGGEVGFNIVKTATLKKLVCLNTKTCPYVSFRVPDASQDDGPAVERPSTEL

As to `C/C(=C\CC/C(C)=C/CC[C@]1(C)CCc2c(C)c(O)c(C)c(C)c2O1)CCC=C(CO)CO` [Compound 27a, α-amplexichromanol], the “Concentrations with antioxidative properties (radical scavenging) versus 5-LOX inhibition” value in series [1] is “exceed those that effectively inhibit 5-LOX”. Moreover, the “Ca2+ influx” value in series [2] (10 μM) is “substantially reduced”. Also, the “Intracellular levels of Ca2+” value in series [2] (submicromolar concentrations (≤1 μM)) was “nor influenced intracellular levels of Ca^2+”. For the same compound, in series [3] (activated human PMNL), the 15-LOX inhibition entry is “not substantially inhibited”. For the same compound, the 15-LOX product formation result in series [3] (submicromolar concentrations) was “increased by a trend”. In addition, the “COX-1 inhibition within human platelets” value in series [4] is “not substantially inhibited”. For the same compound, in series [5], the “Biosynthesis of 5-LOX-derived products in M1 macrophages” value is “preferentially suppressed the biosynthesis of 5-LOX-derived products” and the “PGE2 levels in M1 macrophages” value is “slightly increased”. Besides, the Hepatic metabolism result in series [6] is on record as “preferentially conjugated with sulfate or oxidized at 12a′ or 13′ to the respective ω-carboxylic acid”. The “Cytotoxic effects on human keratinocytes” value in series [7] is reported as “excluded”. Further, the “Effect of Arg101Asp replacement on 5-LOX inhibition” value in series [8] was “failed to affect 5-LOX inhibition”.
